Series [1] relates to Stellaria media. The experiment in a line: Upland soil treatment (Test Example 2). As to conditions: soil surface treatment next day after sowing, wettable powder, 1 kg active ingredient per hectare, evaluated 21st day after application. Format: in vivo. The method, boiled down: (§1)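 Scores were assigned 21 days after treatment on an index where higher means stronger weed control and, for crops, lower means greater safety. A wettable-powder formulation at 1 kg a.i./ha was applied to the soil surface one day after sowing seeds under about 1 cm of upland soil.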

Series [2] has as its system Chenopodium album. The experiment in a line: Upland soil treatment (Test Example 2). Format: in vivo. As to conditions: soil surface treatment next day after sowing, wettable powder, 1 kg active ingredient per hectare, evaluated 21st day after application. An outline of the steps:
as §1

The test system of series [3] is Digitaria adscendens. As to the kind of experiment: Upland soil treatment (Test Example 2). The following applies: soil surface treatment next day after sowing, wettable powder, 1 kg active ingredient per hectare, evaluated 21st day after application. Format: in vivo. The method, boiled down:
as §1

Series [4] concerns Setaria viridis. The experiment in a line: Upland soil treatment (Test Example 2). Format: in vivo. As to conditions: soil surface treatment next day after sowing, wettable powder, 1 kg active ingredient per hectare, evaluated 21st day after application. An outline of the steps:
as §1

The test system of series [5] is soybean (Glycine max). As to the kind of experiment: Upland soil treatment (Test Example 2), crop. Format: in vivo. As to conditions: soil surface treatment next day after sowing, 1 kg active ingredient per hectare, evaluated 21st day, lower index = higher safety. An outline of the steps:
as §1

The subject of series [6] is wheat (Triticum aestivum). As to the kind of experiment: Upland soil treatment (Test Example 2), crop. Format: in vivo. As to conditions: soil surface treatment next day after sowing, 1 kg active ingredient per hectare, evaluated 21st day, lower index = higher safety. The method, boiled down:
as §1

Series [7] concerns Stellaria media. The experiment in a line: Upland field foliage treatment (Test Example 1). The following applies: foliage treatment 14th day after sowing, wettable powder, 1 kg active ingredient per hectare, evaluated 21st day after application. Format: in vivo. The method, boiled down:
(§2)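 Foliage application took place two weeks after sowing, at an active-ingredient rate of 1 kg/ha from a water-diluted wettable powder. Rating followed on the 21st day after application, using an index scale on which crop values rise as injury increases.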

Series [8] concerns Chenopodium album. The experiment in a line: Upland field foliage treatment (Test Example 1). The following applies: foliage treatment 14th day after sowing, wettable powder, 1 kg active ingredient per hectare, evaluated 21st day after application. Format: in vivo. The method, boiled down: as §2
In series [9] the test system is Digitaria adscendens. The experiment in a line: Upland field foliage treatment (Test Example 1). Format: in vivo. As to conditions: foliage treatment 14th day after sowing, wettable powder, 1 kg active ingredient per hectare, evaluated 21st day after application. The method, boiled down:
as §2

Series [10] relates to Setaria viridis. The experiment in a line: Upland field foliage treatment (Test Example 1). The following applies: foliage treatment 14th day after sowing, wettable powder, 1 kg active ingredient per hectare, evaluated 21st day after application. Format: in vivo. The method, boiled down:
as §2

In series [11] the test system is rice (Oryza sative, variety: Koshihikari). The experiment in a line: Paddy field treatment (Test Example 3), crop. Format: in vivo, Oryza sativa. The following applies: transplanted rice two-leaf period, water surface treatment 10th day after transplantation, 1 kg active ingredient per hectare, evaluated 21st day, lower index = higher safety. The method, boiled down:
(§3)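 Index scores for herbicidal effect were read 21 days after treatment, higher meaning stronger effect. Treatment was a water-diluted wettable powder dropped onto flooded paddy soil at 1 kg active ingredient per hectare, 10 days after rice transplantation.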

In series [12] the test system is soybean (Glycine max). As to the kind of experiment: Upland field foliage treatment (Test Example 1), crop. Format: in vivo. The following applies: foliage treatment 14th day after sowing, 1 kg active ingredient per hectare, evaluated 21st day, lower index = higher safety. An outline of the steps: as §2
For series [13], the system named is wheat (Triticum aestivum). The description is as above. The following applies: foliage treatment 14th day after sowing, 1 kg active ingredient per hectare, evaluated 21st day, lower index = higher safety. Format: in vivo. An outline of the steps:
as §2

The subject of the next series is Echinochloa spp. As to the kind of experiment: Paddy field treatment (Test Example 3). Format: in vivo, Echinochloa crusgalli. The following applies: paddy pot, submerged 4 cm, dropped on water surface 10th day after transplantation, 1 kg active ingredient per hectare, evaluated 21st day. The method, boiled down:
as §3

The next series deals with Ammannia multiflora. The experiment in a line: Paddy field treatment (Test Example 3). Format: in vivo. The following applies: paddy pot, submerged 4 cm, dropped on water surface 10th day after transplantation, 1 kg active ingredient per hectare, evaluated 21st day. An outline of the steps:
as §3

The subject of another series is Scirpus juncoides. The experiment in a line: Paddy field treatment (Test Example 3). Format: in vivo. The following applies: paddy pot, submerged 4 cm, dropped on water surface 10th day after transplantation, 1 kg active ingredient per hectare, evaluated 21st day. The method, boiled down:
as §3

In a further series the test system is Monochoria vaginalis. The experiment in a line: Paddy field treatment (Test Example 3). Format: in vivo. The following applies: paddy pot, submerged 4 cm, dropped on water surface 10th day after transplantation, 1 kg active ingredient per hectare, evaluated 21st day. The method, boiled down: as §3

Consider `COC=C(Cn1nc(-c2cccc(Cl)c2)c(Cl)c1SC)C(=O)OC` [Compound 42], for which the “Herbicidal activity Stellaria media” value with Stellaria media [1] was 4 (herbicidal effect of not less than 70% by weight and less than 90% by weight); with Stellaria media [7], 4 (herbicidal effect of not less than 70% by weight and less than 90% by weight). Besides, the “Herbicidal activity Chenopodium album” value in the series on Chenopodium album [2] is 4 (herbicidal effect of not less than 70% by weight and less than 90% by weight); in the series with Chenopodium album [8], 4 (herbicidal effect of not less than 70% by weight and less than 90% by weight). In addition, the “Herbicidal activity Digitaria adscendens” value was 4 (herbicidal effect of not less than 70% by weight and less than 90% by weight) in the series on Digitaria adscendens [3]; 4 (herbicidal effect of not less than 70% by weight and less than 90% by weight) with Digitaria adscendens [9]. Moreover, the “Herbicidal activity Setaria viridis” value in the series on Setaria viridis [4] was 4 (herbicidal effect of not less than 70% by weight and less than 90% by weight); in the series with Setaria viridis [10] it was 4 (herbicidal effect of not less than 70% by weight and less than 90% by weight). The “Herbicidal activity Glycine max” value in the series on soybean (Glycine max) [5] was 0 (herbicidal effect of not less than 0% by weight and less than 10% by weight); in the series with soybean (Glycine max) [12], 0 (herbicidal effect of not less than 0% by weight and less than 10% by weight). Moreover, the “Herbicidal activity Triticum aestivum” value in series [6] was 0 (herbicidal effect of not less than 0% by weight and less than 10% by weight); in series [13], 0 (herbicidal effect of not less than 0% by weight and less than 10% by weight). In addition, in [11], the “Herbicidal activity Oryza sativa” value is 0 (herbicidal effect of not less than 0% by weight and less than 10% by weight). Besides, the “Herbicidal activity Echinochloa spp.” value with Echinochloa spp. is 3 (herbicidal effect of not less than 50% by weight and less than 70% by weight). Moreover, in the series with Ammannia multiflora, the “Herbicidal activity Ammannia multiflora” value was 3 (herbicidal effect of not less than 50% by weight and less than 70% by weight). Also, in the series with Scirpus juncoides, the “Herbicidal activity Scirpus juncoides” value was 3 (herbicidal effect of not less than 50% by weight and less than 70% by weight). Besides, the “Herbicidal activity Monochoria vaginalis” value in the series on Monochoria vaginalis was 3 (herbicidal effect of not less than 50% by weight and less than 70% by weight).

Take `COC=C(Cn1nc(-c2ccccc2Cl)c(Br)c1C)C(=O)OC` [Compound 27]: the “Herbicidal activity Stellaria media” value with Stellaria media [1] and in the series on Stellaria media [7] was 5 (herbicidal effect of not less than 90% by weight) in each case. For the same molecule, the “Herbicidal activity Chenopodium album” value is 4 (herbicidal effect of not less than 70% by weight and less than 90% by weight) in the series on Chenopodium album [2]; 5 (herbicidal effect of not less than 90% by weight) with Chenopodium album [8]. In addition, the “Herbicidal activity Digitaria adscendens” value with Digitaria adscendens [3] and in the series on Digitaria adscendens [9] was 5 (herbicidal effect of not less than 90% by weight) each time. Also, the “Herbicidal activity Setaria viridis” value is 4 (herbicidal effect of not less than 70% by weight and less than 90% by weight) in the series with Setaria viridis [4]; 4 (herbicidal effect of not less than 70% by weight and less than 90% by weight) with Setaria viridis [10]. For the same molecule, the “Herbicidal activity Glycine max” value in the series with soybean (Glycine max) [5] is 0 (herbicidal effect of not less than 0% by weight and less than 10% by weight); in the series on soybean (Glycine max) [12] it was 0 (herbicidal effect of not less than 0% by weight and less than 10% by weight). Moreover, the “Herbicidal activity Triticum aestivum” value is 0 (herbicidal effect of not less than 0% by weight and less than 10% by weight) in series [6]; 0 (herbicidal effect of not less than 0% by weight and less than 10% by weight) in series [13]. In [11], the “Herbicidal activity Oryza sativa” value is 1 (herbicidal effect of not less than 10% by weight and less than 30% by weight). In addition, in the series with Echinochloa spp., the “Herbicidal activity Echinochloa spp.” value was 5 (herbicidal effect of not less than 90% by weight). In addition, in the series with Ammannia multiflora, the “Herbicidal activity Ammannia multiflora” value is 5 (herbicidal effect of not less than 90% by weight). In addition, in the series on Scirpus juncoides, the “Herbicidal activity Scirpus juncoides” value is reported as 5 (herbicidal effect of not less than 90% by weight). Also, the “Herbicidal activity Monochoria vaginalis” value in the series on Monochoria vaginalis was 5 (herbicidal effect of not less than 90% by weight).

Consider `COC=C(Cn1nc(-c2ccccc2)c(Cl)c1SC)C(=O)OC` [Compound 41], for which the “Herbicidal activity Stellaria media” value in the series with Stellaria media [1] is 4 (herbicidal effect of not less than 70% by weight and less than 90% by weight); in the series with Stellaria media [7], 4 (herbicidal effect of not less than 70% by weight and less than 90% by weight). Also, the “Herbicidal activity Chenopodium album” value is 4 (herbicidal effect of not less than 70% by weight and less than 90% by weight) with Chenopodium album [2]; 4 (herbicidal effect of not less than 70% by weight and less than 90% by weight) in the series on Chenopodium album [8]. Further, the “Herbicidal activity Digitaria adscendens” value is 4 (herbicidal effect of not less than 70% by weight and less than 90% by weight) with Digitaria adscendens [3]; 4 (herbicidal effect of not less than 70% by weight and less than 90% by weight) with Digitaria adscendens [9]. Besides, the “Herbicidal activity Setaria viridis” value in the series with Setaria viridis [4] was 4 (herbicidal effect of not less than 70% by weight and less than 90% by weight); in the series with Setaria viridis [10], 4 (herbicidal effect of not less than 70% by weight and less than 90% by weight). For the same molecule, the “Herbicidal activity Glycine max” value was 0 (herbicidal effect of not less than 0% by weight and less than 10% by weight) with soybean (Glycine max) [5]; 0 (herbicidal effect of not less than 0% by weight and less than 10% by weight) in the series with soybean (Glycine max) [12]. Moreover, the “Herbicidal activity Triticum aestivum” value was 0 (herbicidal effect of not less than 0% by weight and less than 10% by weight) in series [6]; 0 (herbicidal effect of not less than 0% by weight and less than 10% by weight) in series [13]. For the same molecule, the “Herbicidal activity Oryza sativa” value in [11] is 0 (herbicidal effect of not less than 0% by weight and less than 10% by weight). Also, the “Herbicidal activity Echinochloa spp.” value in the series on Echinochloa spp. was 4 (herbicidal effect of not less than 70% by weight and less than 90% by weight). For the same molecule, the “Herbicidal activity Ammannia multiflora” value in the series on Ammannia multiflora is 3 (herbicidal effect of not less than 50% by weight and less than 70% by weight). The “Herbicidal activity Scirpus juncoides” value with Scirpus juncoides was 3 (herbicidal effect of not less than 50% by weight and less than 70% by weight). In the series with Monochoria vaginalis, the “Herbicidal activity Monochoria vaginalis” value is 3 (herbicidal effect of not less than 50% by weight and less than 70% by weight).

As for `COC=C(Cn1cc(C)c(-c2ccc(F)cc2)n1)C(=O)OC` [Compound 14], the “Herbicidal activity Stellaria media” value in the series on Stellaria media [1] and in the series on Stellaria media [7] was 5 (herbicidal effect of not less than 90% by weight) throughout. In addition, the “Herbicidal activity Chenopodium album” value in the series on Chenopodium album [2] and in the series with Chenopodium album [8] was 5 (herbicidal effect of not less than 90% by weight) throughout. In addition, the “Herbicidal activity Digitaria adscendens” value in the series on Digitaria adscendens [3] and with Digitaria adscendens [9] was 5 (herbicidal effect of not less than 90% by weight) throughout. Moreover, the “Herbicidal activity Setaria viridis” value in the series on Setaria viridis [4] and with Setaria viridis [10] was 5 (herbicidal effect of not less than 90% by weight) in each case. Moreover, the “Herbicidal activity Glycine max” value with soybean (Glycine max) [5] was 0 (herbicidal effect of not less than 0% by weight and less than 10% by weight); in the series with soybean (Glycine max) [12], 0 (herbicidal effect of not less than 0% by weight and less than 10% by weight). In addition, the “Herbicidal activity Triticum aestivum” value in series [6] was 0 (herbicidal effect of not less than 0% by weight and less than 10% by weight); in series [13] it was 0 (herbicidal effect of not less than 0% by weight and less than 10% by weight). For the same molecule, the “Herbicidal activity Oryza sativa” value in [11] was 0 (herbicidal effect of not less than 0% by weight and less than 10% by weight). For the same molecule, the “Herbicidal activity Echinochloa spp.” value with Echinochloa spp. was 5 (herbicidal effect of not less than 90% by weight). Further, the “Herbicidal activity Ammannia multiflora” value in the series with Ammannia multiflora is recorded as 5 (herbicidal effect of not less than 90% by weight). Moreover, in the series on Scirpus juncoides, the “Herbicidal activity Scirpus juncoides” value is on record as 5 (herbicidal effect of not less than 90% by weight). Moreover, the “Herbicidal activity Monochoria vaginalis” value in the series with Monochoria vaginalis is reported as 5 (herbicidal effect of not less than 90% by weight).

The record behind these values is patent publication US6809065B2, “Herbicide containing substituted pyrazole derivative as active ingredient” (SDS Biotech K.K., priority 2001, dated 2004).
